# Results: paper PMC3914206
# Experiments:
# Assay type in all cases: binding
# Conditions in all cases: Compound Concentration 10 µM
# panel of 442 kinases [1] = molecular target: T1, panel of 442 kinases (Homo sapiens, UniProt P42336, M1043I)
# T1 construct: purchased KINOMEscan
# From the text: (§1) We assessed the selectivity of members of this scaffold using the KINOMEscan methodology across a near comprehensive panel of 442 kinases [[18,27]].
# panel of 442 kinases [2] = molecular target: T2, panel of 442 kinases (Homo sapiens, UniProt P53779)
# T2 construct: purchased KINOMEscan
# T2 sequence (P53779 whole entry): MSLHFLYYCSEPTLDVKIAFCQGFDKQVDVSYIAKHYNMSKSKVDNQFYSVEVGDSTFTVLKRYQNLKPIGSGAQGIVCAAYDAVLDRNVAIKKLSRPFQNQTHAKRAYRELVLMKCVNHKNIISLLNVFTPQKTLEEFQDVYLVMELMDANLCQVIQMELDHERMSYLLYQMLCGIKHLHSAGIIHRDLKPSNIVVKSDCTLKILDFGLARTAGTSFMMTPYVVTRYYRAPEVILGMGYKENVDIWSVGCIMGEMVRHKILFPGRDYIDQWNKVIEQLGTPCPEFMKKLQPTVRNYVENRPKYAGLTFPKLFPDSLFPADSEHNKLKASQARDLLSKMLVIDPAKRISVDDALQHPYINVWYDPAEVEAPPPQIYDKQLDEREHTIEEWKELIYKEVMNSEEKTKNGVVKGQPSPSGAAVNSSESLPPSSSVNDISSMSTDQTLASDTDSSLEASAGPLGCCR
# From the text: as §1
# panel of 442 kinases [3] = molecular target: T3, panel of 442 kinases (Homo sapiens, UniProt P00533)
# T3 construct: purchased KINOMEscan
# T3 sequence (P00533 25-1210): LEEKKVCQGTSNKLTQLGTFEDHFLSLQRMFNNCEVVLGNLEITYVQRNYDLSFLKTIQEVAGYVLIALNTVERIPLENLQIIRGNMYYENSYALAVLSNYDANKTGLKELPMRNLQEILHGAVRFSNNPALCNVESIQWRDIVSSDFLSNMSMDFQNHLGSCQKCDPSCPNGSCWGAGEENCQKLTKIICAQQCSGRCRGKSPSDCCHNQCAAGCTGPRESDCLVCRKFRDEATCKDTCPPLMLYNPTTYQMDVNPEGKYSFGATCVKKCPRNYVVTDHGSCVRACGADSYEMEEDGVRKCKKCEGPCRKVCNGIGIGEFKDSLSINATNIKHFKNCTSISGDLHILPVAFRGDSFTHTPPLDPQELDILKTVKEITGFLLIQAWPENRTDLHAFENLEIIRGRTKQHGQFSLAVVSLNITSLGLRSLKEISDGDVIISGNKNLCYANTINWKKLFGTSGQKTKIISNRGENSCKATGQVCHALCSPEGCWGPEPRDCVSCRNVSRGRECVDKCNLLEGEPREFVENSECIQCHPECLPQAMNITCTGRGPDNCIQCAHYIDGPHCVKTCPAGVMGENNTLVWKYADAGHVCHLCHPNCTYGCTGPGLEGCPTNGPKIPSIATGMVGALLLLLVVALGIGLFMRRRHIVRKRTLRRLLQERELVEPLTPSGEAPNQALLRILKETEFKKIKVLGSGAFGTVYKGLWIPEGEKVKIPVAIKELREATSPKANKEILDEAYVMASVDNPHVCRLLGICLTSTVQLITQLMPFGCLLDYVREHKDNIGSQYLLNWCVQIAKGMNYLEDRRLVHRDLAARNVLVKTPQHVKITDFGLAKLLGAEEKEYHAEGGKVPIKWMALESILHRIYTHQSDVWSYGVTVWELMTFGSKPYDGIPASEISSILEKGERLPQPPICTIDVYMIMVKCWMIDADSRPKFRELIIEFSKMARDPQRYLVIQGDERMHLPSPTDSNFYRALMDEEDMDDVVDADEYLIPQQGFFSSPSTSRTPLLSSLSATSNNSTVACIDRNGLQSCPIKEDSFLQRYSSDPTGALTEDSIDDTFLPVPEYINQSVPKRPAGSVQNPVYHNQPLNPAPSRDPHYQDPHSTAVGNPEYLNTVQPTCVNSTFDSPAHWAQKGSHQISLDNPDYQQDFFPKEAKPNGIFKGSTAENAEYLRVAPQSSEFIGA
# From the text: as §1
# T1 sequence (P42336 whole entry M1043I): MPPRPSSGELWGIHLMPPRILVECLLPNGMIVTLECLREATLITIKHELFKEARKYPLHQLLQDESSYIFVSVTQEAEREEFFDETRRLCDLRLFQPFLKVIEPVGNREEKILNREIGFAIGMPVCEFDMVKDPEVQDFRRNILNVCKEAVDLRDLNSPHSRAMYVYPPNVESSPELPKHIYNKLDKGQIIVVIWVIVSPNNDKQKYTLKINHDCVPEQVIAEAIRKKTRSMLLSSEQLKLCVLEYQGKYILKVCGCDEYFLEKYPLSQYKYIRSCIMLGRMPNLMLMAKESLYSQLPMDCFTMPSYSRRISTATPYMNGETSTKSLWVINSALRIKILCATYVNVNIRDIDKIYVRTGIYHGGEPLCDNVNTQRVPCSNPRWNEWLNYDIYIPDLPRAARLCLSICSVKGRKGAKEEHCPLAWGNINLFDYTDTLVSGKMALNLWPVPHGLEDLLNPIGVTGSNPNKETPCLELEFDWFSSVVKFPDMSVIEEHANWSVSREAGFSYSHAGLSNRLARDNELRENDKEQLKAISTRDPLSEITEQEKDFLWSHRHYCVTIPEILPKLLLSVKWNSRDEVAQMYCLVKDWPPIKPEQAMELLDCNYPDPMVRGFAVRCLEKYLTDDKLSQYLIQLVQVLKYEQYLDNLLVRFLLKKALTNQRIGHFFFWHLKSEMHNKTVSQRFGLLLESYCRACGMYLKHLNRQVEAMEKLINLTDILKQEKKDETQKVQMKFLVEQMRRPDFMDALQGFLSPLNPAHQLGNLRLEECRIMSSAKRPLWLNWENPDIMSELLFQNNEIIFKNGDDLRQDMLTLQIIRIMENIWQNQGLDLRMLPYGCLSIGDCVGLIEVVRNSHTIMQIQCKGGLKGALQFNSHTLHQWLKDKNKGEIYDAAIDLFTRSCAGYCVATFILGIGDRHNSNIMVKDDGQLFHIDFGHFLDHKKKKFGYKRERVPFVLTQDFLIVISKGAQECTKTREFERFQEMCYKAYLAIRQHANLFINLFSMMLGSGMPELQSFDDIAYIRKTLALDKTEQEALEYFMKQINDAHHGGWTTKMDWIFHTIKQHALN
smiles,measurement,setting,value
CCOc1cc(C(=O)N2CCC(N3CCN(C)CC3)CC2)ccc1Nc1ncc2c(n1)N(C1CCCC1)c1ccccc1C(=O)N2C [Compound 26],KINOMEscan: PIK3CA(M1043I),panel of 442 kinases [1],92
same,KINOMEscan: JNK3,panel of 442 kinases [2],74
same,KINOMEscan: EGFR,panel of 442 kinases [3],100
"COc1cc(C(=O)N2CCC(N3CCN(C)CC3)CC2)ccc1Nc1ncc2c(n1)N(C1CCCC1)c1ccccc1C(=O)N2C [Compound 25, 11-cyclopentyl-2-((2-methoxy-4-(4-(4-methylpiperazin-1-yl)piperidine-1-carbonyl)phenyl)amino)-5-methyl-5H-benzo[e]pyrimido[5,4-b][1,4]diazepin-6(11H)-one]",KINOMEscan: PIK3CA(M1043I),panel of 442 kinases [1],93
same,KINOMEscan: JNK3,panel of 442 kinases [2],48
same,KINOMEscan: EGFR,panel of 442 kinases [3],89
COc1cc(C(=O)N2CCC(N3CCN(C)CC3)CC2)ccc1Nc1ncc2c(n1)N1CCc3cccc(c31)C(=O)N2C [Compound 24],KINOMEscan: PIK3CA(M1043I),panel of 442 kinases [1],66
same,KINOMEscan: JNK3,panel of 442 kinases [2],43
same,KINOMEscan: EGFR,panel of 442 kinases [3],74
COc1cc(C(=O)N2CCC(N3CCN(C)CC3)CC2)ccc1Nc1ncc2c(n1)N(C)c1ccccc1C(=O)N2C [15 (LRRK2-IN-1)],KINOMEscan: PIK3CA(M1043I),panel of 442 kinases [1],65
same,KINOMEscan: JNK3,panel of 442 kinases [2],77
same,KINOMEscan: EGFR,panel of 442 kinases [3],84
